Laboratory results as given in PMC8286840, “Identifying SARS-CoV-2 antiviral compounds by screening for small molecule inhibitors of Nsp3 papain-like protease” (Biochemical Journal, 2021).
Counter-ions that a name gives are not always drawn. Like-named read-outs stand apart in the source and are kept apart here. Where a SMILES comes first, the peptide text is derived from it. [ ]: non-standard residue; d: D form. The star is where a group is joined. Benzoyl(4-tBu) = CC(C)(C)c1ccc(C(=O)*)cc1; Lys(Et2) = CCN(CC)CCCC[C@H](N)C(=O)O

How the values were obtained:
[1] = target: T1, SARS-CoV-2 PLpro (nsp3 1564–1878) (Severe acute respiratory syndrome coronavirus 2, UniProt P0DTD1); assay: biochemical; design: FRET-quenched peptide (Pro3) cleavage by PLpro, 10 min pre-incubation, slope over 20 min, normalised to no-compound control; settings: low concentration screen, read-out: % of control remaining
[2] = target: T1, SARS-CoV-2 PLpro (nsp3 1564–1878); assay: biochemical; design: FRET-quenched peptide (Pro3) cleavage by PLpro, 10 min pre-incubation, slope over 20 min, normalised to no-compound control; settings: high concentration screen, read-out: % of control remaining

Compound: O=C(O)CSc1cc(NS(=O)(=O)c2ccc(Br)cc2)c2ccccc2c1O [UMI-77]
- remaining activity at 1.25 µM ([1]; Well no.=6454): 95.1%
- remaining activity at 3.75 µM ([2]; Well no.=6454): 93.1%

Compound: CN(C)CCN1C(=O)c2cccc3cc(NC(N)=O)cc(c23)C1=O [UNBS5162]
- remaining activity at 1.25 µM ([1]; Well no.=6953): 98.3%
- remaining activity at 1.25 µM ([1]; Well no.=8453): 109%
- remaining activity at 3.75 µM ([2]; Well no.=6953): 98%
- remaining activity at 3.75 µM ([2]; Well no.=8453): 112%

Compound: COc1cc2c(NC3CCN(C(C)C)CC3)nc(N3CCC(F)(F)CC3)nc2cc1OCCCN1CCCC1 [UNC0642]
- remaining activity at 1.25 µM ([1]; Well no.=7187): 92.5%
- remaining activity at 3.75 µM ([2]; Well no.=7187): 86.5%

Compound: O=C(c1ccc(C(=O)N2CCC(N3CCCC3)CC2)c(Nc2ccccc2)c1)N1CCC(N2CCCC2)CC1 [UNC1215]
- remaining activity at 1.25 µM ([1]; Well no.=5417): 98.6%
- remaining activity at 3.75 µM ([2]; Well no.=5417): 100%

Compound: CCN(CC)CCCC[C@H](NC(=O)[C@H](CC(C)C)NC(=O)[C@H](C)NC(=O)[C@H](Cc1ccccc1)NC(=O)c1ccc(C(C)(C)C)cc1)C(=O)N[C@@H](CO)C(=O)OC [UNC3866] ({Benzoyl(4-tBu)}-FAL[Lys(Et2)]S-OMe)
- remaining activity at 1.25 µM ([1]; Well no.=8220): 101%
- remaining activity at 3.75 µM ([2]; Well no.=8220): 103%

Compound: O=C(COc1cccc2c(=O)[nH]ccc12)c1ccccc1 [UPF 1069]
- remaining activity at 1.25 µM ([1]; Well no.=4828): 94.8%
- remaining activity at 3.75 µM ([2]; Well no.=4828): 96.4%

Compound: NC(=O)c1cccc(-c2cccc(OC(=O)NC3CCCCC3)c2)c1 [URB597]
- remaining activity at 1.25 µM ([1]; Well no.=5889): 109%
- remaining activity at 1.25 µM ([1]; Well no.=8102): 95.4%
- remaining activity at 3.75 µM ([2]; Well no.=5889): 109%
- remaining activity at 3.75 µM ([2]; Well no.=8102): 94.7%

Compound: O=C(Nc1cccc(-c2ccccc2)c1)OC1CCCCC1 [URB602]
- remaining activity at 1.25 µM ([1]; Well no.=5392): 99.5%
- remaining activity at 3.75 µM ([2]; Well no.=5392): 105%

Compound: CC(C)N1CCC(N2CCCN(c3cccc(C(=O)Nc4ccncc4)n3)CC2)CC1 [USL311]
- remaining activity at 1.25 µM ([1]; Well no.=8707): 99.4%
- remaining activity at 3.75 µM ([2]; Well no.=8707): 103%

Compound: O=C1/C(=C/c2ccc([N+](=O)[O-])cc2)CS(=O)(=O)C/C1=C\c1ccc([N+](=O)[O-])cc1 [Ubiquitin Isopeptidase Inhibitor I, G5]
- remaining activity at 1.25 µM ([1]; Well no.=6388): 93.2%
- remaining activity at 3.75 µM ([2]; Well no.=6388): 95.7%

Compound: CC(=O)[C@@]1(O)CC[C@H]2[C@@H]3CCC4=CC(=O)CCC4=C3[C@@H](c3ccc(N(C)C)cc3)C[C@@]21C [Ulipristal]
- remaining activity at 1.25 µM ([1]; Well no.=4929): 105%
- remaining activity at 3.75 µM ([2]; Well no.=4929): 104%

Compound: O=C(O)CCCCCCCCCC(=O)O [Undecanedioic acid]
- remaining activity at 1.25 µM ([1]; Well no.=6785): 102%
- remaining activity at 3.75 µM ([2]; Well no.=6785): 99.4%

Compound: CCCCCCCCCCC(=O)O [Undecanoic acid]
- remaining activity at 1.25 µM ([1]; Well no.=4252): 95.5%
- remaining activity at 3.75 µM ([2]; Well no.=4252): 91.9%

Compound: CC(C)(C)C(O)/C(=C\c1ccc(Cl)cc1)n1cncn1 (centres unmarked) [Uniconazole]
- remaining activity at 1.25 µM ([1]; Well no.=8248): 104%
- remaining activity at 3.75 µM ([2]; Well no.=8248): 102%

Compound: O=c1cc[nH]c(=O)[nH]1 [Uracil]
- remaining activity at 1.25 µM ([1]; Well no.=7023): 103%
- remaining activity at 3.75 µM ([2]; Well no.=7023): 102%

Compound: COc1ccccc1N1CCN(CCCNc2cc(=O)n(C)c(=O)n2C)CC1 [Urapidil hydrochloride]
- remaining activity at 1.25 µM ([1]; Well no.=1476): 98.2%
- remaining activity at 3.75 µM ([2]; Well no.=1476): 97.2%

Compound: O=c1ccn([C@@H]2O[C@H](CO)[C@@H](O)[C@H]2O)c(=O)[nH]1 [Uridin]
- remaining activity at 1.25 µM ([1]; Well no.=8849): 101%
- remaining activity at 3.75 µM ([2]; Well no.=6399): 106%
- remaining activity at 3.75 µM ([2]; Well no.=8849): 94.8%

Compound: O=c1ccn([C@@H]2O[C@H](COP(=O)(O)OP(=O)(O)O)[C@@H](O)[C@H]2O)c(=O)[nH]1 [Uridine 5'-diphosphate sodium]
- remaining activity at 1.25 µM ([1]; Well no.=1188): 104%
- remaining activity at 3.75 µM ([2]; Well no.=1188): 104%

Compound: O=c1ccn([C@@H]2O[C@H](COP(=O)(O)O)[C@@H](O)[C@H]2O)c(=O)[nH]1 [Uridine 5'-monophosphate disodium salt]
- remaining activity at 1.25 µM ([1]; Well no.=8935): 112%
- remaining activity at 3.75 µM ([2]; Well no.=8935): 97.2%

Compound: O=c1ccn([C@@H]2O[C@H](COP(=O)(O)O)[C@@H](O)[C@H]2O)c(=O)[nH]1 [Uridine 5'-monophosphate]
- remaining activity at 1.25 µM ([1]; Well no.=7495): 103%
- remaining activity at 1.25 µM ([1]; Well no.=8889): 101%
- remaining activity at 3.75 µM ([2]; Well no.=7495): 103%
- remaining activity at 3.75 µM ([2]; Well no.=8889): 99%

Compound: CC(=O)OC[C@H]1O[C@@H](n2ccc(=O)[nH]c2=O)[C@H](OC(C)=O)[C@@H]1OC(C)=O [Uridine triacetate]
- remaining activity at 1.25 µM ([1]; Well no.=7996): 92.7%
- remaining activity at 3.75 µM ([2]; Well no.=7996): 94.1%

Compound: O=c1ccn([C@@H]2O[C@H](COP(=O)(O)OP(=O)(O)OP(=O)(O)O)[C@@H](O)[C@H]2O)c(=O)[nH]1 [Uridine triphosphate (trisodium salt)]
- remaining activity at 1.25 µM ([1]; Well no.=7810): 105%
- remaining activity at 3.75 µM ([2]; Well no.=7810): 105%

Compound: O=c1ccn([C@@H]2O[C@H](COP(=O)(O)OP(=O)(O)OP(=O)(O)O)[C@@H](O)[C@H]2O)c(=O)[nH]1 [Uridine triphosphate]
- remaining activity at 1.25 µM ([1]; Well no.=8933): 95.1%
- remaining activity at 3.75 µM ([2]; Well no.=8933): 97.6%

Compound: O=c1ccn([C@@H]2O[C@H](COP(=O)(O)OP(=O)(O)O)[C@@H](O)[C@H]2O)c(=O)[nH]1 [Uridine-5'-diphosphate disodium salt]
- remaining activity at 1.25 µM ([1]; Well no.=7718): 96.1%
- remaining activity at 3.75 µM ([2]; Well no.=7718): 97.7%

Compound: O=c1ccn([C@@H]2O[C@H](CO)[C@@H](O)[C@H]2O)c(=O)[nH]1 [Uridine]
- remaining activity at 1.25 µM ([1]; Well no.=4716): 103%
- remaining activity at 3.75 µM ([2]; Well no.=4716): 104%

Compound: C[C@H]1[C@H](C)CC[C@]2(C(=O)O)CC[C@]3(C)C(=CC[C@@H]4[C@@]5(C)CC[C@H](O)C(C)(C)[C@@H]5CC[C@]43C)[C@H]12 [Ursolic acid]
- remaining activity at 1.25 µM ([1]; Well no.=3585): 107%
- remaining activity at 3.75 µM ([2]; Well no.=3585): 113%

Compound: C[C@H]1[C@H](C)CC[C@]2(C(=O)O)CC[C@]3(C)C(=CC[C@@H]4[C@@]5(C)CCC(=O)C(C)(C)[C@@H]5CC[C@]43C)[C@H]12 [Ursonic acid]
- remaining activity at 1.25 µM ([1]; Well no.=6448): 98.3%
- remaining activity at 3.75 µM ([2]; Well no.=6448): 98.4%

Compound: CS(=O)(=O)c1ccc(-c2cnc(N)c(C(=O)Nc3ccccc3)n2)cc1 [VE-821]
- remaining activity at 1.25 µM ([1]; Well no.=4790): 97.8%
- remaining activity at 3.75 µM ([2]; Well no.=4790): 96.4%

Compound: O=C1Nc2ccc(Br)cc2/C1=C/c1cc2c([nH]1)CCCC2 [VEGF Receptor 2 Kinase Inhibitor II]
- remaining activity at 1.25 µM ([1]; Well no.=2651): 86%
- remaining activity at 3.75 µM ([2]; Well no.=2651): 87.8%

Compound: COc1ccc(-c2cnc3c(-c4ccsc4)cnn3c2)cc1 [VEGF Receptor 2 Kinase Inhibitor IV]
- remaining activity at 1.25 µM ([1]; Well no.=2655): 95.2%
- remaining activity at 3.75 µM ([2]; Well no.=2655): 97%

Compound: CCOC(=O)c1c(C)[nH]c(/C=C2\C(=O)Nc3ccccc32)c1C [VEGF Receptor 2 Kinase Inhibitor I]
- remaining activity at 1.25 µM ([1]; Well no.=2645): 97.1%
- remaining activity at 3.75 µM ([2]; Well no.=2645): 102%

Compound: N#Cc1ccc(COC[C@H]2O[C@@H](n3c(NCc4ccc(Cl)c(Cl)c4)nc4c(N)ncnc43)[C@H](O)[C@@H]2O)cc1 [VER155008]
- remaining activity at 1.25 µM ([1]; Well no.=8816): 89.7%
- remaining activity at 3.75 µM ([2]; Well no.=8816): 89.6%
